For data set [1] the following is noted: ref Saadeddin et al., 2004; cited from earlier work.
The next data set relates to HP-LTLC cells. Kind of data set: MTT combination of VN/14-1 with thapsigargin, Chou-Talalay analysis. Format: cell-based, human. Particulars: in combination VN/14-1 + thapsigargin.

Take `CC1=C(/C=C/C(C)=C/C=C/C(C)=C/C(=O)O)C(C)(C)CCC1` [ATRA]: the “Oral bioavailability (F)” value in data set [1] is ~ 40%.
In the case of `C/C=C(/C)C(=O)O[C@H]1C(C)=C2[C@H]([C@@H]1OC(=O)CCCCCCC)[C@@](C)(OC(C)=O)C[C@H](OC(=O)CCC)[C@@]1(O)[C@H]2OC(=O)[C@@]1(C)O` [thapsigargin], the figures for the “DRI (dose reduction index)” value in the data set with HP-LTLC cells (50% inhibition), in the data set on HP-LTLC cells (75% inhibition) and with HP-LTLC cells (95% inhibition) were 11.498, 31.584 and 172.494, respectively.

Values taken from publication PMC4047216 (European journal of pharmacology, 2014).
